Structures are written as SMILES. pEC50, pIC50: −log10 of the molar value.

6 compounds from ChEMBL document CHEMBL3407357, “Inhibiting the deubiquitinating enzymes (DUBs)” (J Med Chem, 2015) can be followed below.

A short description of test [1]: Steady state intracellular drug concentration after 1 hr by LC-MS and UV spectroscopy by cell based assay.
Test [2] addresses T1, Ubiquitin carboxyl-terminal hydrolase 7 (Homo sapiens, UniProt Q93009). Nature of the test: Inhibition of USP7 (unknown origin) by Ub-AMC assay.
Test [3] has as its target T1, Ubiquitin carboxyl-terminal hydrolase 7. Kind of test: Inhibition of USP7 in multiple myeloma cells (unknown origin) by immunohistochemistry. It counts as cell-based.
For test [4], the target named is T2, Ubiquitin carboxyl-terminal hydrolase 13 (Homo sapiens, UniProt Q92995).
T2 sequence (Q92995 whole entry): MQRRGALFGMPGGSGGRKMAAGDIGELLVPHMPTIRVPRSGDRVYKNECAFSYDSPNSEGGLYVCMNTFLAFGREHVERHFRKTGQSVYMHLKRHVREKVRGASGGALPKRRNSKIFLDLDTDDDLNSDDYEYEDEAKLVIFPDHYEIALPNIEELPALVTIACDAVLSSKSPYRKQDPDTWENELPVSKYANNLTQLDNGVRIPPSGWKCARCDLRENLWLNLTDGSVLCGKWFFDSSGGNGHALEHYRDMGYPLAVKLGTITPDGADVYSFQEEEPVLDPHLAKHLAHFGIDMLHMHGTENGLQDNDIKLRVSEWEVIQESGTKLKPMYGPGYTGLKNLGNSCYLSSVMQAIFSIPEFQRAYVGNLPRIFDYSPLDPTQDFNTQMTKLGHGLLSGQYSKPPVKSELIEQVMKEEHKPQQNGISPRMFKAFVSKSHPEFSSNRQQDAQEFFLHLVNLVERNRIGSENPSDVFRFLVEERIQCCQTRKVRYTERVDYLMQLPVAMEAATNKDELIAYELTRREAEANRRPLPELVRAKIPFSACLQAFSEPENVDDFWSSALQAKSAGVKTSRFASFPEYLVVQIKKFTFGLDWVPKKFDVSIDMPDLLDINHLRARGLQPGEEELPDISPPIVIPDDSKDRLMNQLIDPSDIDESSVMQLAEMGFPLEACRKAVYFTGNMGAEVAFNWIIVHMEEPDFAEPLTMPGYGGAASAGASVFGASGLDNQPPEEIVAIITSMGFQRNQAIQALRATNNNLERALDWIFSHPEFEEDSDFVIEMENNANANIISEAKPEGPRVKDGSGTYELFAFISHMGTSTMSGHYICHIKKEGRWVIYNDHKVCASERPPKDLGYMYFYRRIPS
Kind of test: Inhibition of USP13 (unknown origin) by Ub-AMC assay.

Test [5] deals with Ubiquitin carboxyl-terminal hydrolase 10 (Homo sapiens, UniProt Q14694). Nature of the test: Inhibition of USP10 (unknown origin) by Ub-AMC assay.
Test [6] addresses T3, Ubiquitin carboxyl-terminal hydrolase 1 (Homo sapiens, UniProt O94782).
T3 sequence (O94782 whole entry): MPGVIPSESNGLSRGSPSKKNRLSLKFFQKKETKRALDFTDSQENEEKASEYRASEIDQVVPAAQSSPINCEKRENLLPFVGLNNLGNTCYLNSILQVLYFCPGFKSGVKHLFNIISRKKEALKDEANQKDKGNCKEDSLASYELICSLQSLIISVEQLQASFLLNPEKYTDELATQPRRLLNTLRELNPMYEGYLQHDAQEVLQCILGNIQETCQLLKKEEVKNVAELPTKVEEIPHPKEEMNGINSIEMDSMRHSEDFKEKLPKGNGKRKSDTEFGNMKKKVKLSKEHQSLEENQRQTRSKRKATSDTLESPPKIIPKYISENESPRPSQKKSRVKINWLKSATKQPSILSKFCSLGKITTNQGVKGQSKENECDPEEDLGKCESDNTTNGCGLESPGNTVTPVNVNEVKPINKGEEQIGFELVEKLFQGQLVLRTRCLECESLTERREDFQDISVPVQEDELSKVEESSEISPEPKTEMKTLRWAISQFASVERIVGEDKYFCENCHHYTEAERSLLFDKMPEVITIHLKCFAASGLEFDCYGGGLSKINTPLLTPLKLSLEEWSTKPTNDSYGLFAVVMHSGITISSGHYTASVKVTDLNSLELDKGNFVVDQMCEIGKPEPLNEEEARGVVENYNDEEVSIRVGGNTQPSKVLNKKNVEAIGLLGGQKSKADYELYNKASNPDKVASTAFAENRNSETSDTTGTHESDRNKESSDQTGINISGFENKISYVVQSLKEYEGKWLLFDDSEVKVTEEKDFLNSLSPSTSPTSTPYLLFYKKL
Nature of the test: Inhibition of USP1 (unknown origin) by Ub-AMC assay.

The target of test [7] is T1, Ubiquitin carboxyl-terminal hydrolase 7. Nature of the test: Inhibition of USP7 (unknown origin) by Ub-CHOP reporter assay. In general terms: Reporter assays use an easily measured gene product as a stand-in for the process of interest.

T1 sequence (Q93009 whole entry): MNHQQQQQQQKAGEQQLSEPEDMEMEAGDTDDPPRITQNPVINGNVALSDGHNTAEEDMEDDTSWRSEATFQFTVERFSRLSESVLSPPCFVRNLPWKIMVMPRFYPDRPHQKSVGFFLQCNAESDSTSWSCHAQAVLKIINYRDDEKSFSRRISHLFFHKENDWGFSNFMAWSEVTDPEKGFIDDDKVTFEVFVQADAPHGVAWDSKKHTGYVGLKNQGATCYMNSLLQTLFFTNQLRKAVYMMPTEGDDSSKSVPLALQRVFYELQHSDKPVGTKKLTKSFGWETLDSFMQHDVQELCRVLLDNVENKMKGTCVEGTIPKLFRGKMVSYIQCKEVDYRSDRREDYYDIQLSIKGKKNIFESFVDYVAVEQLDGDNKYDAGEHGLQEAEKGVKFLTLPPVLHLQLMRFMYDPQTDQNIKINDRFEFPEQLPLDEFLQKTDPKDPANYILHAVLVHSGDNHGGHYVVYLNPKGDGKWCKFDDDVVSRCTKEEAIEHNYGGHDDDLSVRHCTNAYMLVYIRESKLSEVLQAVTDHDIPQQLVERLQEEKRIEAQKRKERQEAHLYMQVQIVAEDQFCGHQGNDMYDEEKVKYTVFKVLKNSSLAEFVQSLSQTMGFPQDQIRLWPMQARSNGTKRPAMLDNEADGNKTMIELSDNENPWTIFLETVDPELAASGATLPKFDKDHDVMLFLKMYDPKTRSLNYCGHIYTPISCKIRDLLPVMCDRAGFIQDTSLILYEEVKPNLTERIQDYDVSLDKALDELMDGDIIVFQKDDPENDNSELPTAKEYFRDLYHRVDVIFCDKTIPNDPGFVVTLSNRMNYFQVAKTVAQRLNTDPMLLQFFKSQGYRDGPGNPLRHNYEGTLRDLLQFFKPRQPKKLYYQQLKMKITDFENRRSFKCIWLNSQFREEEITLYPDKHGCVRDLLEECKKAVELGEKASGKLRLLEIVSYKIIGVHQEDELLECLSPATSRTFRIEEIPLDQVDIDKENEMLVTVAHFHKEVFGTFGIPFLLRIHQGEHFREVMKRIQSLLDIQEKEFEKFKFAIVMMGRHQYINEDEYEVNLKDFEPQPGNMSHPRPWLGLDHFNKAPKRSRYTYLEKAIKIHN
Ubiquitin carboxyl-terminal hydrolase 10, sequence (Q14694 whole entry): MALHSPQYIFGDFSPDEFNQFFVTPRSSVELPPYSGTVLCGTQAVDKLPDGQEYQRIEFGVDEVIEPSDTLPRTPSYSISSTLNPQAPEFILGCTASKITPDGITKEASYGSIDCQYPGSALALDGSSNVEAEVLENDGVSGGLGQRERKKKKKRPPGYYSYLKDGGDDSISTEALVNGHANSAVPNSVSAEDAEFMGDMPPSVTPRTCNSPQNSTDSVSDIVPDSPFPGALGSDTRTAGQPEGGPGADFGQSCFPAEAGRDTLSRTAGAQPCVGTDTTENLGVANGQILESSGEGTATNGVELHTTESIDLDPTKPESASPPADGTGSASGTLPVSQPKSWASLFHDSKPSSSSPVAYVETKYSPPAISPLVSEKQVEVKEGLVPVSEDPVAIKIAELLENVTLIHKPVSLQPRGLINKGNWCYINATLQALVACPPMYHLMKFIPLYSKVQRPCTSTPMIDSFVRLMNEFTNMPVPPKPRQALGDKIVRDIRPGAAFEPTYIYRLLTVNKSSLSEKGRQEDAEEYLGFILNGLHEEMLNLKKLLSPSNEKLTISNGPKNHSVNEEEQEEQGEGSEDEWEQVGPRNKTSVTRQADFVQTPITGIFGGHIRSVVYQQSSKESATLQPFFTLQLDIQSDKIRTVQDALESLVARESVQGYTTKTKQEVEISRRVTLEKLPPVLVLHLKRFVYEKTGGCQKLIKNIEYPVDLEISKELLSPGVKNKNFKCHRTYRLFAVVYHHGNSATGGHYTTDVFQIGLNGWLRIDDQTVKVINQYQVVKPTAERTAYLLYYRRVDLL

`Cc1cc(C(=O)CN2CCCC2)c(C)n1-c1ccc(F)cc1`: the Drug uptake in test [1] turned out to be 13 µM.
Usually pIC50 stands for −log10 of the IC50, conventionally taken in molar units. `N#Cc1nc2c(nc1C#N)-c1cc(Cl)ccc1C2=O` showed a pIC50 in test [2] of 6.38.
Broadly, the pEC50 is the negative decadic logarithm of the EC50, by convention in mol/L. The low end stands for a high EC50, the high end for a low EC50. For `O=[N+]([O-])c1cc(CCO)sc1Sc1cccc(Cl)c1Cl`, the pEC50 in test [3] is 4.70.
For `Fc1ccc(CNc2ncnc3ccc(F)cc23)cc1`, the pIC50 in test [4] and in test [5] was 6.22 each time.
`O=C1c2ccccc2C(=O)c2oc(-c3ccccc3)nc21` had a pIC50 in test [6] of 6.26.
With `CC(=O)c1cc([N+](=O)[O-])c(Sc2cccc(Cl)c2Cl)s1`, the pEC50 in test [7] was 5.10.
